Data as given in paper PMC11310598, “Gestodene, a novel positive allosteric modulator of PAR1, enhances PAR1-mediated human platelet aggregation” (Frontiers in Pharmacology, 2024).

Biological target: T1, Protease-activated receptor 1 (PAR1) (Homo sapiens, UniProt P25116)
T1 construct: gene F2R; endogenous PAR1 in HT29 cells
T1 sequence (P25116 42-425): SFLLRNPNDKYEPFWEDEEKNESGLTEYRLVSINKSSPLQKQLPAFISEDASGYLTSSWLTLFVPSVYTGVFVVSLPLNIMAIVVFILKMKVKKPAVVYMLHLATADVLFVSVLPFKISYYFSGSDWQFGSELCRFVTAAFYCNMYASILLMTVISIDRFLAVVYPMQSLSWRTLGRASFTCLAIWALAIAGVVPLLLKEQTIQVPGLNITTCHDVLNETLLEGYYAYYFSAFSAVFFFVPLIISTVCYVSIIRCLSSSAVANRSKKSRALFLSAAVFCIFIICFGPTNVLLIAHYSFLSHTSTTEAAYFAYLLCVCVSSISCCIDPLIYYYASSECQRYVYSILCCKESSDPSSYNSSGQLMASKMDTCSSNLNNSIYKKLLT
Experiment: Fluo-4 intracellular calcium, potentiation of thrombin or PAR1-AP response; blocked by vorapaxar
Type: cell-based

## C#C[C@]1(O)C=C[C@H]2[C@@H]3CCC4=CC(=O)CC[C@@H]4[C@H]3CC[C@@]21CC [gestodene]
  EC50: 4.54 ± 0.27 µM
